Results as given in the NIST ThermoML archive (doi:10.1016/j.jct.2016.08.010).

Test: molar heat capacity at constant pressure; xn = mol fraction of the nth substance listed
Details: 100 kPa, Liquid, Small sample (50 mg) DSC

CCCCn1cc[n+](C)c1C.F[B-](F)(F)F [1-butyl-2,3-dimethylimidazolium tetrafluoroborate] + CCCCn1cc[n+](C)c1.F[B-](F)(F)F
molar heat capacity at constant pressure [J/K/mol]
Details | 293.15 K | 298.15 K | 303.15 K | 308.15 K
x1 = 0.0944 | 372.33 | 374.56 | 376.3 | 378.14
x1 = 0.1139 | 374.5 | 376.61 | 378.27 | 379.93
x1 = 0.1685 | 380.51 | 382.42 | 383.87 | 385.43
x1 = 0.1964 | 383.54 | 385.39 | 386.73 | 388.21
x1 = 0.2219 | 386.3 | 388.04 | 389.27 | 390.78
x1 = 0.2761 | 391.8 | 393.45 | 394.59 | 396.01
x1 = 0.325 | 396.42 | 397.97 | 399.09 | 400.41
x1 = 0.3616 | 399.58 | 401.14 | 402.27 | 403.61
x1 = 0.4192 | 404.04 | 405.54 | 406.68 | 408.07
x1 = 0.4769 | 407.66 | 409.23 | 410.42 | 411.83
x1 = 0.5228 | 410.01 | 411.58 | 412.83 | 414.29
x1 = 0.5749 | 412.12 | 413.7 | 415.09 | 416.68
x1 = 0.6325 | 413.66 | 415.36 | 416.86 | 418.94
x1 = 0.6877 | 414.45 | 416.32 | 418.24 | 420.31
x1 = 0.7386 | 414.74 | 416.82 | 419.32 | 421.29
x1 = 0.7922 | 414.58 | 416.97 | 419.35 | 421.84
x1 = 0.8479 | 414.36 | 416.75 | 419.41 | 422.19
x1 = 0.8832 | 413.81 | 416.53 | 419.16 | 421.93
x1 = 1 | 413.03 | 416.01 | 418.84 | 421.7

CCCCn1cc[n+](C)c1C.F[B-](F)(F)F [1-butyl-2,3-dimethylimidazolium tetrafluoroborate] + CCn1cc[n+](C)c1.F[B-](F)(F)F
molar heat capacity at constant pressure [J/K/mol]
Details | 293.15 K | 298.15 K | 303.15 K | 308.15 K
x1 = 0.1129 | 319.45 | 321.79 | 324.44 | 327.05
x1 = 0.1657 | 325.94 | 328.52 | 331.39 | 334.26
x1 = 0.2189 | 331.85 | 334.58 | 337.61 | 340.64
x1 = 0.2743 | 337.42 | 340.23 | 343.39 | 346.51
x1 = 0.3272 | 342.26 | 345.15 | 348.38 | 351.58
x1 = 0.3729 | 346.15 | 349.09 | 352.37 | 355.65
x1 = 0.4382 | 351.36 | 354.4 | 357.74 | 361.09
x1 = 0.4917 | 355.44 | 358.6 | 362.01 | 365.39
x1 = 0.5242 | 357.91 | 361.14 | 364.6 | 368.01
x1 = 0.5687 | 361.32 | 364.66 | 368.19 | 371.64
x1 = 0.6042 | 364.11 | 367.55 | 371.14 | 374.62
x1 = 0.6468 | 367.63 | 371.19 | 374.82 | 378.34
x1 = 0.6931 | 371.7 | 375.37 | 379.1 | 382.63
x1 = 0.7244 | 374.62 | 378.4 | 382.14 | 385.71
x1 = 0.785 | 380.94 | 384.83 | 388.57 | 392.14
x1 = 0.8149 | 384.44 | 388.32 | 392.05 | 395.57
x1 = 0.8633 | 390.63 | 394.43 | 398.1 | 401.56
x1 = 0.9107 | 397.48 | 401.14 | 404.65 | 407.96
x1 = 1 | 413.03 | 416.01 | 418.84 | 421.7

CCn1cc[n+](C)c1.F[B-](F)(F)F [1-ethyl-3-methylimidazolium tetrafluoroborate] + CCCCn1cc[n+](C)c1.F[B-](F)(F)F
molar heat capacity at constant pressure [J/K/mol]
Details | 293.15 K | 298.15 K | 303.15 K | 308.15 K
x2 = 0 | 303.2 | 304.53 | 306.29 | 308.03
x2 = 0.0731 | 314.45 | 315.32 | 316.58 | 318.02
x2 = 0.1164 | 321.05 | 322.12 | 323.51 | 324.76
x2 = 0.1692 | 328.75 | 329.72 | 330.85 | 332.16
x2 = 0.2144 | 335.06 | 336 | 337.17 | 338.49
x2 = 0.2672 | 341.92 | 342.87 | 344.05 | 345.42
x2 = 0.3259 | 348.89 | 349.85 | 351.13 | 352.54
x2 = 0.3827 | 354.65 | 355.77 | 357.13 | 358.55
x2 = 0.4365 | 359.23 | 360.56 | 362.07 | 363.61
x2 = 0.4722 | 361.72 | 363.22 | 364.73 | 366.24
x2 = 0.535 | 365.27 | 367.01 | 368.62 | 370.2
x2 = 0.5968 | 367.7 | 369.31 | 370.93 | 372.58
x2 = 0.6379 | 368.54 | 370.31 | 371.89 | 373.53
x2 = 0.6857 | 369.02 | 370.78 | 372.53 | 374.23
x2 = 0.7446 | 369.21 | 371.07 | 372.68 | 374.41
x2 = 0.7732 | 368.94 | 370.9 | 372.67 | 374.4
x2 = 0.8293 | 368.08 | 370.08 | 371.76 | 373.59
x2 = 0.876 | 367.14 | 369.26 | 371.02 | 372.8
x2 = 0.9253 | 365.44 | 367.47 | 369.72 | 371.83
